Results taken from paper PMC9518255 (Journal of Enzyme Inhibition and Medicinal Chemistry, 2022).
pIC50: −log10 of the molar value.

Key:
[1] = target: Keap1-Nrf2 PPI (Keap1 Kelch domain protein / FITC-9mer Nrf2 peptide amide) (Homo sapiens, UniProt Q14145); experiment: Fluorescence polarisation; assay type: binding; settings: for inhibitory activities against Keap1-Nrf2 PPI compared to compound K3: FP assay, 5 and 50 μM, R2 substituent varied; for inhibition at 50 µM: read-out: inhibitory rate against Keap1-Nrf2 PPI
Chain of Keap1-Nrf2 PPI (Keap1 Kelch domain protein / FITC-9mer Nrf2 peptide amide) (Q14145 321-609 limits assumed): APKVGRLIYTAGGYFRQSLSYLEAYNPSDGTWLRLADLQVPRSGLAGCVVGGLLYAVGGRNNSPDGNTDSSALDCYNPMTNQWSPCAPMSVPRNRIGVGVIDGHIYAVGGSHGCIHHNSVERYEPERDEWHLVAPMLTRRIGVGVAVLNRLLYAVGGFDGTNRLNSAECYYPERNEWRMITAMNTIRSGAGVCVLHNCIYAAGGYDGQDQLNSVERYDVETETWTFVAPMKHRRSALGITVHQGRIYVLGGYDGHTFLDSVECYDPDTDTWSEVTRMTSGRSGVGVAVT

[2] = Metabolic stability in human liver microsomes; assay type: in vitro ADME; settings: pH 7.4

Compound | pIC50 [1] | inhibitory activities against Keap1-Nrf2 PPI compared to compound K3 [1] | inhibition at 50 µM [1] | remaining at 0.5 h, 10 μM [2]
COc1ccc(S(=O)(=O)Nc2ccc(NS(=O)(=O)c3ccc(C)cc3)cc2)cc1 [K11] | – | markedly decreased | – | –
COc1ccc(S(=O)(=O)Nc2ccc(NS(=O)(=O)c3ccc(OC)cc3)cc2)cc1 [K3] | 4.44 | – | ~68% | –
COc1ccc(S(=O)(=O)Nc2ccc(NS(=O)(=O)Cc3ccccc3)cc2)cc1 [K15] | – | markedly decreased | – | –
COc1ccc(S(=O)(=O)Nc2ccc(NS(=O)(=O)c3ccc(-c4ccccc4)cc3)cc2)cc1 [K14] | – | markedly decreased | – | –
COc1ccc(S(=O)(=O)Nc2ccc(NS(=O)(=O)c3ccccc3)cc2)cc1 [K10] | – | markedly decreased | – | –

Second part, the compound after the results:

pIC50 [1] | inhibitory activities against Keap1-Nrf2 PPI compared to compound K3 [1] | inhibition at 50 µM [1] | remaining at 0.5 h, 10 μM [2] | Compound
~4.50 | slightly higher | 72% | – | COc1ccc(S(=O)(=O)Nc2ccc(NS(=O)(=O)c3cccnc3)cc2)cc1 [K18]
– | markedly decreased | – | – | COc1ccc(S(=O)(=O)Nc2ccc(NS(=O)(=O)c3cccc4cccnc34)cc2)cc1 [K17]
6.13 | – | – | – | COc1ccc(S(=O)(=O)Nc2ccc(NS(=O)(=O)c3ccc(OC)cc3)c(CCC(=O)O)c2)cc1 [KP-1]
– | markedly decreased | – | – | COc1ccc(S(=O)(=O)Nc2ccc(NS(=O)(=O)c3ccc4ccccc4c3)cc2)cc1 [K16]
5.06 | – | – | 10.3% | O=C(CCc1ccc(O)cc1)c1c(O)cc(O)cc1O [PHL, Phloretin, reference compound]
